From PMC3961306, “Comparison of the Cancer Gene Targeting and Biochemical Selectivities of All Targeted Kinase Inhibitors Approved for Clinical Use” (PLoS ONE, 2014)

Columns and labels:
Assay in all cases: Kinase profiling in a biochemical assay panel (mobility shift assays and ELISA), %-inhibition at 1 μM; selectivity entropy
[1] = molecular target: panel of more than 300 wild-type and mutant kinases (313 kinase panel) (Homo sapiens, UniProt Q13464)
[2] = molecular target: panel of more than 300 wild-type and mutant kinases (313 kinase panel) (Homo sapiens, UniProt Q13555); settings: kinase CaMK2γ; 1 μM compound
[3] = molecular target: T1, panel of more than 300 wild-type and mutant kinases (313 kinase panel) (Homo sapiens, UniProt P54762); settings: kinase EPHB1; compound at 1 μM
T1 sequence (P54762 18-984): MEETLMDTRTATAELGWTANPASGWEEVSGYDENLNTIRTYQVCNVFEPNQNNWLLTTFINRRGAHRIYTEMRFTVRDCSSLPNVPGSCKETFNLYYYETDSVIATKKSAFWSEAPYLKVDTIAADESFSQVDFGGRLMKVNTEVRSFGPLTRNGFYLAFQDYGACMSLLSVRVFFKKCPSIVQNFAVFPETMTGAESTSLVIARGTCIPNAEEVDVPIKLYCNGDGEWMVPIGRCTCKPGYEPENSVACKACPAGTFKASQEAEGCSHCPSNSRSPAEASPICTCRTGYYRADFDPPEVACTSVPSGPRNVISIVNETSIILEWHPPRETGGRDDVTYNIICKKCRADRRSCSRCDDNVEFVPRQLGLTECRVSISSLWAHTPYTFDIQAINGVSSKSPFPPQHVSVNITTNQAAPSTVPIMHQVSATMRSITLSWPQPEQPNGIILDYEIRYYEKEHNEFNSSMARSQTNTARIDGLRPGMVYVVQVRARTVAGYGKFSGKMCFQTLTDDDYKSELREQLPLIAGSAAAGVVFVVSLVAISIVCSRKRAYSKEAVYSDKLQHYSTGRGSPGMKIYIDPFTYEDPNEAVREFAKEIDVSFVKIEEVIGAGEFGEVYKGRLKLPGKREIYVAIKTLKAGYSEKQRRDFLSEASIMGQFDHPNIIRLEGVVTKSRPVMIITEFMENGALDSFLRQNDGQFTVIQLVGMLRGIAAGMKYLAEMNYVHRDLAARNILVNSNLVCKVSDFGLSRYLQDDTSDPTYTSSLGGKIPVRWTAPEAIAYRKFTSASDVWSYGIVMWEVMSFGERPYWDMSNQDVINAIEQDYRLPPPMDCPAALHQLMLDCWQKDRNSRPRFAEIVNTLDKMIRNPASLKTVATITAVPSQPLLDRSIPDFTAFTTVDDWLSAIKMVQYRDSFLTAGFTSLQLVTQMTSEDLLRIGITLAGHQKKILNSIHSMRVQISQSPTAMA

[4] = molecular target: panel of more than 300 wild-type and mutant kinases (313 kinase panel) (Homo sapiens, UniProt Q8TDX7); settings: kinase NEK7; 1 μM
[5] = molecular target: panel of more than 300 wild-type and mutant kinases (313 kinase panel) (Homo sapiens, UniProt P05129); settings: kinase PKCγ; 1 μM
[6] = molecular target: panel of more than 300 wild-type and mutant kinases (313 kinase panel) (Homo sapiens, UniProt P27361); settings: kinase Erk1; compound at 1 μM
[7] = molecular target: T2, panel of more than 300 wild-type and mutant kinases (313 kinase panel) (Homo sapiens, UniProt Q13163); settings: kinase MAP2K5; compound at 1 μM
T2 sequence (Q13163 1-448): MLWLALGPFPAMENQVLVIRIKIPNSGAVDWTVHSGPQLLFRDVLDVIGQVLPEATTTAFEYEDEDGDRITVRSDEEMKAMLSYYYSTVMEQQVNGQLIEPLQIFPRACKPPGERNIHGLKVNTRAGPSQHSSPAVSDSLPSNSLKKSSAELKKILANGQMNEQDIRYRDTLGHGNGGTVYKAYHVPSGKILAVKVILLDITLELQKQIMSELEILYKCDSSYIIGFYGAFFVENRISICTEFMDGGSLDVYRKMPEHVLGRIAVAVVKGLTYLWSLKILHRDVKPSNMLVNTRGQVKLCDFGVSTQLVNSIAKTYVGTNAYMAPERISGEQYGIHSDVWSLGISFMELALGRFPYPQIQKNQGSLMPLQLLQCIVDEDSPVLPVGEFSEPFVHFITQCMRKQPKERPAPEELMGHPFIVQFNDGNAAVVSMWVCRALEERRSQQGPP

[8] = molecular target: T3, panel of more than 300 wild-type and mutant kinases (313 kinase panel) (Homo sapiens, UniProt Q16566); settings: kinase CaMK4; 1 μM compound
T3 sequence (Q16566 1-473): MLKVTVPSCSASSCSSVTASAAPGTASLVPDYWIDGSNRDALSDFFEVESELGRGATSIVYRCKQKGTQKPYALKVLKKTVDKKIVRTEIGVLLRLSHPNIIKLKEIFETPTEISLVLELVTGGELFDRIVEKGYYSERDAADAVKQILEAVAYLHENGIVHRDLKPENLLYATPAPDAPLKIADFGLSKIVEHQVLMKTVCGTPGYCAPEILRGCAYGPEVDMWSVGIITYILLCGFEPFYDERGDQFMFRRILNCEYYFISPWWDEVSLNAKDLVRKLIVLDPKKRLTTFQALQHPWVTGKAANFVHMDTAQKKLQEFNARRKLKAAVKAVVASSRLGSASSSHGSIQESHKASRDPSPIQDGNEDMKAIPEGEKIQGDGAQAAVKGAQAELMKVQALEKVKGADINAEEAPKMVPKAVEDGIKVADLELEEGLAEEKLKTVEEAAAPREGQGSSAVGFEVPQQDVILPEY

[9] = molecular target: panel of more than 300 wild-type and mutant kinases (313 kinase panel) (Homo sapiens, UniProt P43405); settings: kinase SYK; 1 μM
[10] = molecular target: panel of more than 300 wild-type and mutant kinases (313 kinase panel) (Homo sapiens, UniProt Q07912); settings: kinase ACK; 1 μM compound
Sequence of panel of more than 300 wild-type and mutant kinases (313 kinase panel) (Homo sapiens, UniProt Q07912) (Q07912 whole entry, change not shown): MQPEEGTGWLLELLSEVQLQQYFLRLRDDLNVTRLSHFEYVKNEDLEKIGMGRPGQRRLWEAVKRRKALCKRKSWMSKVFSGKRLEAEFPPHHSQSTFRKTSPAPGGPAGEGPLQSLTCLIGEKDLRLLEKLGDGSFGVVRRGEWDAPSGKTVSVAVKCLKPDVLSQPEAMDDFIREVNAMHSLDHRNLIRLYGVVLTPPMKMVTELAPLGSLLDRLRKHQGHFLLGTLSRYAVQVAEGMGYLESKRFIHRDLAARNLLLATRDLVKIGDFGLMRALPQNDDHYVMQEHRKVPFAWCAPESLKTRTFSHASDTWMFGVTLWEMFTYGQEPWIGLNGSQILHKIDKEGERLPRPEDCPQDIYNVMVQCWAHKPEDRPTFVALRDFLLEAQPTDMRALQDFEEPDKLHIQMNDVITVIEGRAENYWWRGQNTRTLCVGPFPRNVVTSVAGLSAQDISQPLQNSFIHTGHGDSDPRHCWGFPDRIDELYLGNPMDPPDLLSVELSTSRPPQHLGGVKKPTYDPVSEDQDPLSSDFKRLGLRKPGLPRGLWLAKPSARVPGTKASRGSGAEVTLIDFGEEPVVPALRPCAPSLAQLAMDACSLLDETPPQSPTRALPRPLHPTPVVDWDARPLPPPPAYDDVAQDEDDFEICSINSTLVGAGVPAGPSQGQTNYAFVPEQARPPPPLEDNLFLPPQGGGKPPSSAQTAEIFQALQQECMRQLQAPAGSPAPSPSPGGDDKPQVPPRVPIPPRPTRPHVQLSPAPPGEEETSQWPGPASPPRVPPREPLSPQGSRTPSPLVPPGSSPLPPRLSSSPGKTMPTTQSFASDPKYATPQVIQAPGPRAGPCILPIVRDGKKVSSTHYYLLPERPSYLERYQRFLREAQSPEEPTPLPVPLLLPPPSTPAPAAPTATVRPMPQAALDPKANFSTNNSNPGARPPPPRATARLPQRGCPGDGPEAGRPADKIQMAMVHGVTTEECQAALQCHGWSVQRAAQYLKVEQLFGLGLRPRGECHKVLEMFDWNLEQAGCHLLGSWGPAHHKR

Sequence of panel of more than 300 wild-type and mutant kinases (313 kinase panel) (Homo sapiens, UniProt P27361) (P27361 whole entry, change not shown): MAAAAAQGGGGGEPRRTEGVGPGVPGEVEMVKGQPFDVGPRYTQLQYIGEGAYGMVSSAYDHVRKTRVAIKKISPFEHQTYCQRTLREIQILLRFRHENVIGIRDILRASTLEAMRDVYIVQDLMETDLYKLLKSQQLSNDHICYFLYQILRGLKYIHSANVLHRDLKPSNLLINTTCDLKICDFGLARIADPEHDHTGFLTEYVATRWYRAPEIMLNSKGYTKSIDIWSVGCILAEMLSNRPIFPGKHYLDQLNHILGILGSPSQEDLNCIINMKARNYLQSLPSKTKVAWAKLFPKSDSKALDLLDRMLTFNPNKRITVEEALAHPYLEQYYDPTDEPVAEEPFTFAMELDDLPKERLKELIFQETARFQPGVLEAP

SMILES: CO[C@H]1C[C@@H]2CC[C@@H](C)[C@@](O)(O2)C(=O)C(=O)N2CCCC[C@H]2C(=O)O[C@H]([C@H](C)C[C@@H]2CC[C@@H](OCCO)[C@H](OC)C2)CC(=O)[C@H](C)/C=C(\C)[C@@H](O)[C@@H](OC)C(=O)[C@H](C)C[C@H](C)/C=C/C=C/C=C/1C [everolimus]
- %-inhibition of ROCK1 ([1]; kinase ROCK1, 1 μM): -3.7%
- %-inhibition, CaMK2γ [2]: -16%
- %-inhibition of EPHB1 [3]: -0.233%
- %-inhibition of NEK7 [4]: -11%
- %-inhibition of PKCγ [5]: -6.56%
- %-inhibition of Erk1 [6]: -0.906%
- %-inhibition of MAP2K5 [7]: 1.34%
- %-inhibition, CaMK4 [8]: -11%
- %-inhibition of SYK [9]: -2.55%
- %-inhibition, ACK [10]: -4.62%

SMILES: CNC(=O)c1cc(Oc2ccc(NC(=O)Nc3ccc(Cl)c(C(F)(F)F)c3)c(F)c2)ccn1 [regorafenib]
- %-inhibition of ROCK1 ([1]; kinase ROCK1, 1 μM): 11%
- %-inhibition, CaMK2γ [2]: -13%
- %-inhibition of EPHB1 [3]: 76%
- %-inhibition of NEK7 [4]: -13%
- %-inhibition of PKCγ [5]: -8%
- %-inhibition of Erk1 [6]: -2%
- %-inhibition of MAP2K5 [7]: 17%
- %-inhibition, CaMK4 [8]: -0.0486%
- %-inhibition of SYK [9]: 3.55%
- %-inhibition, ACK [10]: -3.35%

SMILES: O=S(=O)(c1cccc2cnccc12)N1CCCNCC1 [fasudil]
- %-inhibition of ROCK1 ([1]; kinase ROCK1, 1 μM): 83%
- %-inhibition, CaMK2γ [2]: -3.38%
- %-inhibition of EPHB1 [3]: -7%
- %-inhibition of NEK7 [4]: -1.52%
- %-inhibition of PKCγ [5]: 10%
- %-inhibition of Erk1 [6]: -3%
- %-inhibition of MAP2K5 [7]: 13%
- %-inhibition, CaMK4 [8]: -5.66%
- %-inhibition of SYK [9]: 6%
- %-inhibition, ACK [10]: 0.581%

SMILES: Cc1cn(-c2cc(NC(=O)c3ccc(C)c(Nc4nccc(-c5cccnc5)n4)c3)cc(C(F)(F)F)c2)cn1 [nilotinib]
- %-inhibition of ROCK1 ([1]; 1 µM): -17%
- %-inhibition, CaMK2γ [2]: -2.76%
- %-inhibition of EPHB1 [3]: 72%
- %-inhibition of NEK7 [4]: -3.77%
- %-inhibition of PKCγ [5]: -1.31%
- %-inhibition of Erk1 [6]: 3.21%
- %-inhibition of MAP2K5 [7]: -7.56%
- %-inhibition, CaMK4 [8]: 3.54%
- %-inhibition of SYK [9]: 54%
- %-inhibition, ACK [10]: 13%

SMILES: Cc1ccc(Nc2nccc(N(C)c3ccc4c(C)n(C)nc4c3)n2)cc1S(N)(=O)=O [pazopanib]
- %-inhibition of ROCK1 ([1]; kinase ROCK1, 1 μM): -1.24%
- %-inhibition, CaMK2γ [2]: 0.188%
- %-inhibition of EPHB1 [3]: 27%
- %-inhibition of NEK7 [4]: -4.75%
- %-inhibition of PKCγ [5]: 9%
- %-inhibition of Erk1 [6]: -3.79%
- %-inhibition of MAP2K5 [7]: 13%
- %-inhibition, CaMK4 [8]: -1.08%
- %-inhibition of SYK [9]: 40%
- %-inhibition, ACK [10]: 13%

SMILES: COc1cc2nccc(Oc3ccc(NC(=O)C4(C(=O)Nc5ccc(F)cc5)CC4)cc3)c2cc1OC [cabozantinib]
- %-inhibition of ROCK1 ([1]; kinase ROCK1, 1 μM): 1.28%
- %-inhibition, CaMK2γ [2]: -8%
- %-inhibition of EPHB1 [3]: 95%
- %-inhibition of NEK7 [4]: -6%
- %-inhibition of PKCγ [5]: -4%
- %-inhibition of Erk1 [6]: -1.33%
- %-inhibition of MAP2K5 [7]: 17%
- %-inhibition, CaMK4 [8]: -10%
- %-inhibition of SYK [9]: -3%
- %-inhibition, ACK [10]: 30%
